Results taken from patent publication US8785445B2 (Array BioPharma Inc., priority 2008, dated 2014).

Target: T1, human DP2 (Homo sapiens, UniProt Q9Y5Y4)
T1 construct: expressed in transfected cells; membranes prepared
T1 sequence (Q9Y5Y4 1-395): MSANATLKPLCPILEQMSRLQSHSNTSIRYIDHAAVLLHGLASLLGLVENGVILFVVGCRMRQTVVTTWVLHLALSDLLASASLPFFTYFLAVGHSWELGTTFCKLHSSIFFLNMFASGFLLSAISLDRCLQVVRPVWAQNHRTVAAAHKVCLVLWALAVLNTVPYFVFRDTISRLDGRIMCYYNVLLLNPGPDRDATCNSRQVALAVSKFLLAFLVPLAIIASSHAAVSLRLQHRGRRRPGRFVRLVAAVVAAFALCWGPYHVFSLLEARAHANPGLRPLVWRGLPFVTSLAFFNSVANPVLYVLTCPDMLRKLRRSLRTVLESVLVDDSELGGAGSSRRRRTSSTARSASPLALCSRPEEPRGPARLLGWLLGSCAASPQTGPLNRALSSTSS
Experiment: DP-2 binding inhibition assay (3H-PGD2, membranes of DP2-expressing K562 cells)
Conditions: 0.1% BSA, read-out: EC50 (nM) 0.1% BSA
Experimental: The coding sequence of human DP2 was introduced into the human Leukemic cell line K562 by electroporation and stable clones expressing DP2 were obtained by limiting dilution followed by cell surface staining with a rat monoclonal antibody specific for human DP2. Membranes were prepared from one of these DP2 expressing clones and used to determine the ability of the compounds of the present invention to inhibit binding of prostaglandin D2 (PGD2) to its receptor DP2 in the presence of one or more of the following serum protein concentrations, 0.1% BSA, 1% HSA or 4% HSA, by the following procedure. […] After incubation for 60 minutes at room temperature, the assay was transferred to a filtration plate (#MAFB; Millipore Corporation, Bedford, Mass.), and washed three times with binding buffer. Radioactivity was measured by a scintillation counter (TopCount; PerkinElmer Life Sciences, Boston, Mass.). Nonspecific binding was determined by incubations in the presence of 1 μM unlabeled PGD2 or 5 μM of a known DP2 antagonist. IC50 values for inhibition of binding were determined for each compound tested from the inflexion point of a standard 4-parameter logistical curve fitted to the values obtained.

| SMILES | EC50 [nM] |
| --- | --- |
| N#Cc1cc2c(cc1Oc1ccc(C(=O)Nc3ccc4cc(Cl)ccc4n3)cc1)OCCC2C(=O)O (stereo not shown) [Example 5, 7-(4-(6-Chloroquinolin-2-ylcarbamoyl)phenoxy)-6-cyanochroman-4-carboxylic acid] | 5.9 |
| N#Cc1cc2c(cc1Oc1ccc(C(=O)Nc3nc4ccc(Cl)cc4s3)cc1)OCCC2C(=O)O (stereo not shown) [Example 196] | 11 |

Next, values leading:

| EC50 [nM] | SMILES |
| --- | --- |
| 9.3 | COc1ccc2nc(NC(=O)c3ccc(Oc4cc5c(cc4C#N)C(C(=O)O)CCO5)cc3)sc2c1 (stereo not shown) [Example 197, 6-cyano-7-(4-(6-methoxybenzo[d]thiazol-2-ylcarbamoyl)phenoxy) chroman-4-carboxylic acid] |
| 26.7 | N#Cc1cc2c(cc1Oc1ccc(C(=O)Nc3ccc(Cl)cn3)cc1)OCCC2C(=O)O (stereo not shown) [Example 2, 7-(4-(5-Chloropyridin-2-ylcarbamoyl)phenoxy)-6-cyanochroman-4-carboxylic acid] |
| 68.2 | Cc1csc(NC(=O)c2ccc(Oc3cc4c(cc3C#N)C(C(=O)O)CCO4)cc2)n1 (stereo not shown) [Example 177, 6-cyano-7-(4-(4-methylthiazol-2-ylcarbamoyl)phenoxy)chroman-4-carboxylic acid] |
| 10.7 | N#Cc1cc2c(cc1Oc1ccc(C(=O)Nc3nc4ccccc4s3)cc1)OCCC2C(=O)O (stereo not shown) [Example 194, 7-(4-(benzo[d]thiazol-2-ylcarbamoyl)phenoxy)-6-cyanochroman-4-carboxylic acid] |
| 27.7 | N#Cc1cc2c(cc1Oc1ccc(C(=O)Nc3cnc4ccccc4n3)cc1)OCCC2C(=O)O (stereo not shown) [Example 4, 6-Cyano-7-(4-(quinoxalin-2-ylcarbamoyl)phenoxy)chroman-4-carboxylic acid] |

Same assay, conditions: 1% HSA, read-out: EC50 (nM) 1% HSA

| SMILES | EC50 [nM] |
| --- | --- |
| N#Cc1cc2c(cc1Oc1ccc(C(=O)Nc3ccc4cc(Cl)ccc4n3)cc1)OCCC2C(=O)O (stereo not shown) [Example 5, 7-(4-(6-Chloroquinolin-2-ylcarbamoyl)phenoxy)-6-cyanochroman-4-carboxylic acid] | 137 |
| N#Cc1cc2c(cc1Oc1ccc(C(=O)Nc3nc4ccc(Cl)cc4s3)cc1)OCCC2C(=O)O (stereo not shown) [Example 196] | 352 |

Results, then the compound that gave them:

| EC50 [nM] | SMILES |
| --- | --- |
| 146 | COc1ccc2nc(NC(=O)c3ccc(Oc4cc5c(cc4C#N)C(C(=O)O)CCO5)cc3)sc2c1 (stereo not shown) [Example 197, 6-cyano-7-(4-(6-methoxybenzo[d]thiazol-2-ylcarbamoyl)phenoxy) chroman-4-carboxylic acid] |
| 1240 | N#Cc1cc2c(cc1Oc1ccc(C(=O)Nc3nc4ccccc4s3)cc1)OCCC2C(=O)O (stereo not shown) [Example 194, 7-(4-(benzo[d]thiazol-2-ylcarbamoyl)phenoxy)-6-cyanochroman-4-carboxylic acid] |
| 370 | N#Cc1cc2c(cc1Oc1ccc(C(=O)Nc3cnc4ccccc4n3)cc1)OCCC2C(=O)O (stereo not shown) [Example 4, 6-Cyano-7-(4-(quinoxalin-2-ylcarbamoyl)phenoxy)chroman-4-carboxylic acid] |

Same assay, conditions: 4% HSA, read-out: EC50 (nM) 4% HSA

| SMILES | EC50 [nM] |
| --- | --- |
| N#Cc1cc2c(cc1Oc1ccc(C(=O)Nc3cccc(-c4ccc(Cl)cc4)n3)cc1)OCCC2C(=O)O (stereo not shown) [Example 51, 7-(4-(6-(4-Chlorophenyl)pyridin-2-ylcarbamoyl)phenoxy)-6-cyanochroman-4-carboxylic acid] | 51.3 |
| O=C(NCCc1cccnc1-c1ccccc1Cl)c1ccc(Oc2cc3c(cc2Cl)C(C(=O)O)CCO3)cc1 (stereo not shown) [Example 224, 6-chloro-7-(4-(2-(2-(2-chlorophenyl)pyridin-3-yl)ethylcarbamoyl)phenoxy) chroman-4-carboxylic acid] | 998 |
| O=C(Nc1nc2cc(Cl)ccc2o1)c1ccc(Oc2cc3c(cc2Cl)C(C(=O)O)CCO3)cc1 (stereo not shown) [Example 208, 6-chloro-7-(4-(5-chlorobenzo[d]oxazol-2-ylcarbamoyl)phenoxy) chroman-4-carboxylic acid] | 736 |
| N#Cc1cc2c(cc1Oc1ccc(C(=O)NCCc3ccc(C(F)(F)F)nc3)cc1)OCCC2C(=O)O (stereo not shown) [Example 12, 6-Cyano-7-(4-(2-(6-(trifluoromethyl)pyridin-3-yl)ethylcarbamoyl)phenoxy)chroman-4-carboxylic acid] | 667 |
| O=C(Nc1cncc(-c2ccc(Cl)cc2)n1)c1ccc(Oc2cc3c(cc2Cl)C(C(=O)O)CCO3)cc1 (stereo not shown) [Example 79, 6-chloro-7-(4-(6-(4-chlorophenyl)pyrazin-2-ylcarbamoyl)phenoxy)chroman-4-carboxylic acid] | 105 |
| CSc1ccc(-c2ccc(NC(=O)c3ccc(Oc4cc5c(cc4Cl)C(C(=O)O)CCO5)cc3)nn2)cc1 (stereo not shown) [Example 64, Sodium 6-chloro-7-(4-(6-(4-(methylthio)phenyl)pyridazin-3-ylcarbamoyl)phenoxy)chroman-4-carboxylate] | 344 |
| CC(C)Oc1ncccc1CCNC(=O)c1ccc(Oc2cc3c(cc2Cl)C(C(=O)O)CCO3)cc1 (stereo not shown) [Example 228, 6-chloro-7-(4-(2-(2-isopropoxypyridin-3-yl)ethylcarbamoyl)phenoxy) chroman-4-carboxylic acid] | 195 |
| O=C(Nc1ccc(-c2cccc(Cl)c2)cn1)c1ccc(Oc2cc3c(cc2Cl)C(C(=O)O)CCO3)cc1 (stereo not shown) [Example 116, 6-Chloro-7-(4-(5-(3-chlorophenyl)pyridin-2-ylcarbamoyl)phenoxy)chroman-4-carboxylic acid] | 82.8 |
| O=C(Nc1cccc(-c2ccc(Cl)c(Cl)c2)n1)c1ccc(Oc2cc3c(cc2Cl)C(C(=O)O)CCO3)cc1 (stereo not shown) [Example 52, 6-Chloro-7-(4-(6-(3,4-dichlorophenyl)pyridin-2-ylcarbamoyl)phenoxy)chroman-4-carboxylic acid] | 50.8 |
| O=C(Nc1ccc(-c2ccc(Cl)cc2)nc1)c1ccc(Oc2cc3c(cc2Cl)C(C(=O)O)CCO3)cc1 (stereo not shown) [Example 123, 6-Chloro-7-(4-(6-(4-chlorophenyl)pyridin-3-ylcarbamoyl)phenoxy)chroman-4-carboxylic acid] | 294 |
| N#Cc1cc2c(cc1Oc1ccc(C(=O)Nc3ccc4cc(Cl)ccc4n3)cc1)OCCC2C(=O)O (stereo not shown) [Example 5, 7-(4-(6-Chloroquinolin-2-ylcarbamoyl)phenoxy)-6-cyanochroman-4-carboxylic acid] | 357 |
| Cc1cc(NC(=O)c2ccc(Oc3cc4c(cc3Cl)C(C(=O)O)CCO4)cc2)nc(-c2ccc(C(F)(F)F)cc2)n1 (stereo not shown) [Example 102, Sodium 6-chloro-7-(4-(6-methyl-2-(4-(trifluoromethyl)phenyl)pyrimidin-4-ylcarbamoyl)phenoxy)chroman-4-carboxylate] | 21.2 |
| O=C(Nc1nccc(-c2cccc(C(F)(F)F)c2)n1)c1ccc(Oc2cc3c(cc2Cl)C(C(=O)O)CCO3)cc1 (stereo not shown) [Example 131, 6-Chloro-7-(4-(4-(3-(trifluoromethyl)phenyl)pyrimidin-2-ylcarbamoyl)phenoxy)chroman-4-carboxylic acid] | 128 |

Continued, values first:

| EC50 [nM] | SMILES |
| --- | --- |
| 57.1 | O=C(Nc1cccc(-c2ccc(Cl)cc2Cl)n1)c1ccc(Oc2cc3c(cc2Cl)C(C(=O)O)CCO3)cc1 (stereo not shown) [Example 103, Sodium 6-chloro-7-(4-(6-(2,4-dichlorophenyl)pyridin-2-ylcarbamoyl)phenoxy)chroman-4-carboxylate] |
| 337 | COc1ccc(-c2cccc(NC(=O)c3ccc(Oc4cc5c(cc4Cl)C(C(=O)O)CCO5)cc3)n2)cn1 (stereo not shown) [Example 54, Sodium 6-chloro-7-(4-(6′-methoxy-2,3′-bipyridin-6-ylcarbamoyl)phenoxy)chroman-4-carboxylate] |
| 187 | O=C(Nc1cccc(C(F)(F)F)n1)c1ccc(Oc2cc3c(cc2Cl)C(C(=O)O)CCO3)cc1 (stereo not shown) [Example 28, 6-Chloro-7-(4-(6-(trifluoromethyl)pyridin-2-ylcarbamoyl)phenoxy)chroman-4-carboxylic acid] |
| 1890 | O=C(Nc1cc(-c2cccc(Cl)c2)ccn1)c1ccc(Oc2cc3c(cc2Cl)C(C(=O)O)CCO3)cc1 (stereo not shown) [Example 121, 6-Chloro-7-(4-(4-(3-chlorophenyl)pyridin-2-ylcarbamoyl)phenoxy)chroman-4-carboxylic acid] |
| 40.9 | O=C(Nc1cccc(-c2ccc(Cl)c(C(F)(F)F)c2)n1)c1ccc(Oc2cc3c(cc2Cl)C(C(=O)O)CCO3)cc1 (stereo not shown) [Example 53, 6-Chloro-7-(4-(6-(4-chloro-3-(trifluoromethyl)phenyl)pyridin-2-ylcarbamoyl)phenoxy)chroman-4-carboxylic acid] |
| 564 | O=C(Nc1nc(-c2ccccc2)ns1)c1ccc(Oc2cc3c(cc2Cl)C(C(=O)O)CCO3)cc1 (stereo not shown) [Example 163, 6-chloro-7-(4-(3-phenyl-1,2,4-thiadiazol-5-ylcarbamoyl)phenoxy)chroman-4-carboxylic acid] |
| 327 | Cc1ccc(-c2ccc(NC(=O)c3ccc(Oc4cc5c(cc4Cl)C(C(=O)O)CCO5)cc3)nn2)cc1 (stereo not shown) [Example 62, Sodium 6-chloro-7-(4-(6-p-tolylpyridazin-3-ylcarbamoyl)phenoxy)chroman-4-carboxylate] |
| 47.1 | O=C(Nc1ccn(-c2ccccc2Cl)n1)c1ccc(Oc2cc3c(cc2Cl)C(C(=O)O)CCO3)cc1 (stereo not shown) [Example 174, 6-chloro-7-(4-(1-(2-chlorophenyl)-1H-pyrazol-3-ylcarbamoyl)phenoxy)chroman-4-carboxylic acid] |
| 210 | O=C(NCCc1cccnc1C1CC1)c1ccc(Oc2cc3c(cc2Cl)C(C(=O)O)CCO3)cc1 (stereo not shown) [Example 223, 6-chloro-7-(4-(2-(2-cyclopropylpyridin-3-yl)ethylcarbamoyl)phenoxy) chroman-4-carboxylic acid] |
| 342 | O=C(Nc1ccc(-c2ccc(Cl)cc2)cn1)c1ccc(Oc2cc3c(cc2Cl)C(C(=O)O)CCO3)cc1 (stereo not shown) [Example 115, 6-Chloro-7-(4-(5-(4-chlorophenyl)pyridin-2-ylcarbamoyl)phenoxy)chroman-4-carboxylic acid] |
| 1460 | COc1ccc(-c2ccc(NC(=O)c3ccc(Oc4cc5c(cc4Cl)C(C(=O)O)CCO5)cc3)nn2)cc1 (stereo not shown) [Example 63, Sodium 6-chloro-7-(4-(6-(4-methoxyphenyl)pyridazin-3-ylcarbamoyl)phenoxy)chroman-4-carboxylate] |
| 74.6 | O=C(Nc1cc(-c2ccc(Cl)cc2)no1)c1ccc(Oc2cc3c(cc2Cl)C(C(=O)O)CCO3)cc1 (stereo not shown) [Example 161, 6-chloro-7-(4-(3-(4-chlorophenyl)isoxazol-5-ylcarbamoyl)phenoxy)chroman-4-carboxylic acid] |
